How the values were obtained:
[1] = target: human STING protein (140-379), WT (Homo sapiens, UniProt Q86WV6, H232R); assay: Radiometric filtration binding competition assay (FBA), hSTING-WT; settings: WT-hSWAT IC50 (μM), WT_FBA_HIS-SUMO-hSWAT; wild-type human STING; competition with [H3] 2′3′cGAMP
[2] = system: STING protein; IRF/IFN signaling in THP-1 R232 cells; assay: Cell based reporter assay, THP-1 R232 IRF-luc; settings: Homo sapiens, THP1-dual-KI R232 cells, IRF luciferase reporter; for Emax: maximum measured activity, read-out: THP 1-dual-KI R232_IRF(Luciferase)_Activity Maximum measured (%); for IC50: read-out: THP 1-dual-KI R232_IRF(Luciferase) IC50
From the text: Cell reporter assays were developed to measure the ability of compounds of the application to activate the STING protein and activate both IRF/IFN and the NFkB signaling pathways in the myeloid derived cell line THP-1, which is commercially available from several suppliers. Briefly, THP-1 monocytes were transfected and selected for stable integration of 2 reporter constructs. Clones incorporating stably integrated vectors were further selected by antibiotic resistance to blastocidin and zeocin. The reporter constructs included: (1) firefly luciferase reporter gene under the control of an ISG54 promoter fused to five interferon (IFN)-stimulated response elements to measure IRF transcription factor binding activity and (2) secreted embryonic alkaline phosphatase reporter gene under transcription control of an IFN-beta minimal promoter fused to 5 copies of the NFkB consensus transcriptional response element and 3 copies of the c-Rel binding site.
The resulting THP-1 cell line was further modified to incorporate 3 amino acid point mutations (H71R A230G Q293R). This modification of the native TMEM173 gene in THP-1 cells (HAQ) was designed to produce a cell reporter that expressed the most common allelic variant in the human population (THP-1 R232, available from InvivoGen). Alternatively, the TMEM173 gene was knocked out to provide a congenic control to counter-screen for compound activation that was independent of the STING protein (THP-1 STING KO).
Once cell lines were established, reporter assay protocols were developed and optimized to screen small molecule compounds for agonist activity. Assay optimization for efficacy and Z′ value included titration of the following parameters:
• 1. Cell pre-activation with PMA • 2. Cell seeding density • 3. DMSO tolerance • 4. Media selection • 5. FBS concentration • 6. Incubation time • 7. Co-Assessment of cell viability by CTG assay • 8. Appropriate HPE and ZPE controls • 9. Dose Response Titration
• 1. No pre-activation with PMA • 2. 5×10^4 cells/well in 96 well plate format • 3. <0.5% DMSO • 4. RPMI 1640+2.5 mg/ml glucose • 5. 10% FBS • 6. 14-18 hr incubation • 7. Cell Titer Glo reagent (Promega) following supernatant removal • 8. […] 8 point, 2 fold, duplicate starting at 150 μM

hSTING-R232 (aa140-379) = hSTING-R232 (aa140-379) (Homo sapiens, UniProt Q86WV6, H232R); assay: STING differential scanning fluorimetry (DSF) assay, hSTING WT; settings: shift in melting temperature apo vs ligand-bound
Chain of hSTING-R232 (aa140-379) (Q86WV6 140-379 H232R): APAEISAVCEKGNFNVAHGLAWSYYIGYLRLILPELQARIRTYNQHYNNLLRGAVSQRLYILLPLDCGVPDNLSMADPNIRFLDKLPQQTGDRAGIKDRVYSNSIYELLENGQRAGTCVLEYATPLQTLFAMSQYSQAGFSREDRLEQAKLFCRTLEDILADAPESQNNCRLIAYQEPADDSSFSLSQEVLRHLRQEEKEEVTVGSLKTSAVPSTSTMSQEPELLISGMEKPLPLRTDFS
Protocol: A STING DSF assay was performed to determine protein thermostability shift in response to small molecule ligand binding. A STING thermnostability shift assay based on differential scanning fluorimetry was used to measure (1) the net shift in melting temperature (ΔTm) between the apo and ligand-bound states of the STING protein and (2) the concentration of the thermal denaturation transition (EC50) as a surrogate measure of binding affinity (Kd). […] Protein in assay buffer was transferred to a 384 well plate and incubated with the hydrophobic fluorescent dye SYBR Orange. A temperature ramp was applied to the plate and the resulting dye fluorescence was plotted as a function of temperature. The first derivative of this function (dF/dT) was then used to extrapolate the melting temperature of the protein at various concentrations of compound and determine the thermal denaturation profile of a protein/compound complex.
5 μM purified Target STING Protein • 3. 8 μM Sypro Orange Dye • 4. Buffer: 100 mM NaCl, 30 mM HEPES, pH 7.5 • 5. Thermal Ramp: 0.5° C./min • 6. <1% DMSO • 7. 11 point, 2 fold dilution, duplicate, 300 μM high concentrations • 8.

Chain of human STING protein (140-379), WT (Q86WV6 140-379 H232R): as above

SMILES | IC50 [1] [µM] | Emax [2] [%] | IC50 [2] [µM] | WT_DSF_hSWAT Tm Shift (° C.) (hSTING-R232 (aa140-379))
COc1cc2c(=O)c3ccc(Cl)c(N(C)C)c3n(CC(=O)O)c2cc1OC [Compound 1] | < 20 | 5 to 25 | > 150 | B (“B” = 0-2° C.)
COc1ccc2c(=O)c3ccc(Cl)c(N(C)C)c3n(CC(=O)O)c2c1 [Compound 2] | 20 to 100 | > 50 | < 50 | D (“D” >7° C.)
CN(C)c1c(Cl)ccc2c(=O)c3cc(Cl)c(Br)cc3n(CC(=O)O)c12 [Compound 3] | 20 to 100 | > 50 | < 50 | C (“C” = 2-7° C.)
Cc1cccn1-c1ccc2c(=O)c3ccc(Cl)c(N(C)C)c3n(CC(=O)O)c2c1 [Compound 4] | < 20 | > 50 | < 50 | D (“D” >7° C.)
CN(C)c1c(Cl)ccc2c(=O)c3ccc(-n4ccnc4)cc3n(CC(=O)O)c12 [Compound 5] | 20 to 100 | > 50 | < 50 | C (“C” = 2-7° C.)
CN(C)c1c(Cl)ccc2c(=O)c3ccc(-n4cccn4)cc3n(CC(=O)O)c12 [Compound 6] | < 20 | > 50 | < 50 | D (“D” >7° C.)
CN(C)c1c(Cl)ccc2c(=O)c3ccc(-n4cccc4)cc3n(CC(=O)O)c12 [Compound 7] | < 20 | > 50 | < 50 | D (“D” >7° C.)
CN(C)c1c(Cl)ccc2c(=O)c3ccc(-c4ccncc4)cc3n(CC(=O)O)c12 [Compound 8] | < 20 | > 50 | < 50 | D (“D” >7° C.)
CN(C)c1c(Cl)ccc2c(=O)c3ccc(-c4cccnc4)cc3n(CC(=O)O)c12 [Compound 9] | < 20 | > 50 | < 50 | C (“C” = 2-7° C.)
CN(C)c1c(Cl)ccc2c(=O)c3ccc(-c4ccccn4)cc3n(CC(=O)O)c12 [Compound 10] | < 20 | > 50 | < 50 | D (“D” >7° C.)
CN(C)c1c(Cl)ccc2c(=O)c3ccc(-c4ccccc4)cc3n(CC(=O)O)c12 [Compound 11] | < 20 | > 50 | < 50 | D (“D” >7° C.)
Cc1noc(C)c1-c1ccc2c(=O)c3ccc(Cl)c(N(C)C)c3n(CC(=O)O)c2c1 [Compound 12] | 20 to 100 |  |  | C (“C” = 2-7° C.)
CN(C)c1c(Cl)ccc2c(=O)c3ccc(-c4cnoc4)cc3n(CC(=O)O)c12 [Compound 13] |  | > 50 | < 50 | D (“D” >7° C.)
CN(C)c1c(Cl)ccc2c(=O)c3ccc(-c4cc[nH]c4)cc3n(CC(=O)O)c12 [Compound 14] | < 20 | > 50 | < 50 | D (“D” >7° C.)
CN(C)c1c(Cl)ccc2c(=O)c3ccc(C4=CCN(C(=O)OC(C)(C)C)CC4)cc3n(CC(=O)O)c12 [Compound 15] | < 20 | > 50 | < 50 | D (“D” >7° C.)
CN(C)c1c(Cl)ccc2c(=O)c3ccc(C4=CCOC4)cc3n(CC(=O)O)c12 [Compound 16] | < 20 | > 50 | < 50 | D (“D” >7° C.)
CN(C)c1c(Cl)ccc2c(=O)c3ccc(-c4ccn(C(=O)OC(C)(C)C)c4)cc3n(CC(=O)O)c12 [Compound 17] | < 20 | > 50 | < 50 | D (“D” >7° C.)
CC/C=C(\CC)c1ccc2c(=O)c3ccc(Cl)c(OC)c3n(CC(=O)O)c2c1 [Compound 18] | 20 to 100 | > 50 | < 50 | D (“D” >7° C.)
CC/C=C(\CC)c1ccc2c(=O)c3ccc(Cl)c(N(C)C)c3n(CC(=O)O)c2c1 [Compound 19] | < 20 | > 50 | < 50 | D (“D” >7° C.)
CN(C)c1c(Cl)ccc2c(=O)c3ccc(Br)cc3n(CC(=O)O)c12 [Compound 20] | < 20 | > 50 | < 50 | D (“D” >7° C.)

SMILES | IC50 [1] [µM] | Emax [2] [%] | IC50 [2] [µM] | WT_DSF_hSWAT Tm Shift (° C.) (hSTING-R232 (aa140-379))
CC(C)c1ccc2c(=O)c3c(O)cc(Cl)c(N(C)C)c3n(CC(=O)O)c2c1 [Compound 21] | < 20 | > 50 | < 50 | D (“D” >7° C.)
CCC(C)(C)c1ccc2c(=O)c3ccc(Cl)c(N(C)C)c3n(CC(=O)O)c2c1 [Compound 22] | < 20 | > 50 | 50 to 100 | D (“D” >7° C.)
CN(C)c1c(Cl)ccc2c(=O)c3ccc(C4=CCCCC4)cc3n(CC(=O)O)c12 [Compound 23] | < 20 | > 50 | < 50 | D (“D” >7° C.)
Cc1ccc2c(=O)c3ccc(C(F)(F)F)c(N(C)C)c3n(CC(=O)O)c2c1 [Compound 26] | > 300 |  |  | B (“B” = 0-2° C.)
COc1c(Cl)ccc2c(=O)c3ccc(C4CCC(N5CCN(C)CC5)CC4)cc3n(CC(=O)O)c12 (stereo not drawn) [Compound 27] | 20 to 100 |  |  | C (“C” = 2-7° C.)
COc1c(Cl)ccc2c(=O)c3ccc(C4=CCC(N5CCN(C)CC5)CC4)cc3n(CC(=O)O)c12 (stereo not drawn) [Compound 28] | 20 to 100 |  |  | C (“C” = 2-7° C.)
Cc1cc2c(cc1Cl)c(=O)c1ccc(Cl)c(N(C)C)c1n2CC(=O)O [Compound 33] |  | > 50 | < 50 | C (“C” = 2-7° C.)
CCc1cccc2c(=O)c3ccc(C)cc3n(CC(=O)O)c12 [Compound 38] | > 300 |  |  | B (“B” = 0-2° C.)
COc1c(Cl)ccc2c(=O)c3ccc(C4=CCNC4)cc3n(CC(=O)O)c12 [Compound 40] | > 300 |  |  | C (“C” = 2-7° C.)
COc1c(Cl)ccc2c(=O)c3ccc(C4=CCN(C(=O)OC(C)(C)C)C4)cc3n(CC(=O)O)c12 [Compound 41] | 20 to 100 |  |  | D (“D” >7° C.)
CN(C)c1c(Cl)ccc2c(=O)c3ccc(C(C)(C)C)cc3n(CC(=O)NS(=O)(=O)C3CC3)c12 [Compound 42] | < 20 |  |  | D (“D” >7° C.)
CN(C)c1c(Cl)ccc2c(=O)c3ccc(C(C)(C)C)cc3n(CC(=O)NC#N)c12 [Compound 43] | < 20 |  |  | D (“D” >7° C.)
Cc1ccc2c(=O)c3ccc(Cl)c(N(C)C)c3n(CC(=O)NS(=O)(=O)C3CC3)c2c1 [Compound 44] | 20 to 100 |  |  | D (“D” >7° C.)
Cc1ccc2c(=O)c3ccc(Cl)c(N(C)C)c3n(CC(=O)NC#N)c2c1 [Compound 45] | 20 to 100 |  |  | C (“C” = 2-7° C.)
CCc1c(Cl)ccc2c(=O)c3ccc(C)cc3n(CC(=O)O)c12 [Compound 48] | 20 to 100 |  |  | D (“D” >7° C.)
C=Cc1c(Cl)ccc2c(=O)c3ccc(C)cc3n(CC(=O)O)c12 [Compound 49] | 20 to 100 |  |  | D (“D” >7° C.)
CN(C)c1c(Cl)ccc2c(=O)c3ccc(-c4ccco4)cc3n(CC(=O)O)c12 [Compound 50] | 20 to 100 |  |  | D (“D” >7° C.)
COc1c(Cl)ccc2c(=O)c3ccc(Br)cc3n(CC(=O)O)c12 [Compound 66] | 100 to 300 |  |  | C (“C” = 2-7° C.)
CN(C)c1c(Cl)ccc2c(=O)c3ccc(C4(C)CC4)cc3n(CC(=O)O)c12 [Compound 85] | < 20 | > 50 | < 50 | 
CCc1cc2c(cc1Cl)c(=O)c1ccc(Cl)c(N(C)C)c1n2CC(=O)O [Compound 93] |  | > 50 | < 50 | C (“C” = 2-7° C.)

— patent US20220227761A1, “OXOACRIDINYL ACETIC ACID DERIVATIVES AND METHODS OF USE” (STINGTHERA, INC., priority 2019, published 2022)
